The values that follow come from patent publication US8263596B2, “Kinase inhibitors and method of treating cancer” (University Health Network, priority 2010, dated 2012).

Where a name gives a salt, the structure may show the parent alone. Read-outs that look alike come from different tables or passages of the source.

In one assay the test system is SW620 colon cancer cells. The format is cell-based. Particulars: Homo sapiens, SW-620, 120 h, read-out: Cell Line GI50 Range SW-620.
The next assay has as its system A549 lung cancer cells. The format is cell-based. To be noted: Homo sapiens, A549, 120 h, read-out: Cell Line GI50 Range A-549.
Another assay has as its target Aurora B (Homo sapiens, UniProt Q96GD4). In words: Aurora B inhibition assay (Z-Lyte). The format is biochemical. To be noted: read-out: IC50 Ranges Aurora B.
Another assay addresses T1, human PLK4 (Homo sapiens, UniProt O00444).
T1 construct: amino terminal GST fusion of residues 1-391 of human PLK4; made in house; host or cells: E. coli
T1 sequence (O00444 1-391): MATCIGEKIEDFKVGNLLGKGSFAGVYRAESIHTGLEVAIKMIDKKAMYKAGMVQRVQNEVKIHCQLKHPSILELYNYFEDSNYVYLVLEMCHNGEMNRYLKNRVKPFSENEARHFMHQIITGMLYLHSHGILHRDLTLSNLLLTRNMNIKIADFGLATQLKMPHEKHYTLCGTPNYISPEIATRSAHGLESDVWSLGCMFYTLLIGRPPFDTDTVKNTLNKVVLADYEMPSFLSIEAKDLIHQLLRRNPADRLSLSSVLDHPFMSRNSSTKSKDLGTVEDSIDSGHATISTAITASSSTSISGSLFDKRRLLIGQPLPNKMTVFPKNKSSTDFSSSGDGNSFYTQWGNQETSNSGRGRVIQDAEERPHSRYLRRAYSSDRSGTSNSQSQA
The assay is described as follows: PLK4 inhibition assay (indirect ELISA). The format is biochemical. Background: ELISA stands for enzyme-linked immunosorbent assay.

In general, GI50 refers to the concentration that inhibits growth by half. In general, IC50 refers to the concentration at which inhibition is half-maximal.

Aurora B, sequence (Q96GD4 whole entry): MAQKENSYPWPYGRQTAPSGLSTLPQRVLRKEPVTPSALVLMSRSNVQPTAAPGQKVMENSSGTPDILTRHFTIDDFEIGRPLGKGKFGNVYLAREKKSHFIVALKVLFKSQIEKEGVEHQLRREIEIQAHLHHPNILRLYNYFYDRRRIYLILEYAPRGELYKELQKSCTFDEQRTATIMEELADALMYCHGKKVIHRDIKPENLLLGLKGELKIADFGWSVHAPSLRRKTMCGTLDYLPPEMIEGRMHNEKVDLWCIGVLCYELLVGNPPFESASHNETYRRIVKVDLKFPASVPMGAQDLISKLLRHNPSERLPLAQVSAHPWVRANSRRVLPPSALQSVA
Protocol for Aurora B: Aurora B inhibition was determined using the Z-Lyte assay kit from Invitrogen. […] The % inhibition values were determined according to the manufacturer's directions and IC50 values were obtained using a non-linear 4 point logistic curve fit (XLfit4, IDBS)
Protocol for human PLK4: PLK4 activity was measured using an indirect ELISA detection system. […] The colourimetric reaction was allowed to continue for 5 minutes, followed by addition of stop solution (0.5 N sulphuric acid), and quantified by detection at 450 nm with either a monochromatic or filter based plate reader (Molecular Devices M5 or Beckman DTX880, respectively).
Compounds were pre-incubated in the presence of enzyme for 15 minutes prior to addition of ATP and the activity remaining quantified using the above described activity assay. […] The IC50 value was determined using a non-linear 4 point logistic curve fit (XLfit4, IDBS) with the formula; (A+(B/(1+((x/C)^D)))), where A=background value, B=range, C=inflection point, D=curve fit parameter.

Turning to `O=C1Nc2ccccc2[C@]12CC2c1ccc2cn[nH]c2c1` (mixture of isomers) [Example A2, (1R*,2S*)-2-(1H-indazol-6-yl)spiro[cyclopropane-1,3′-indolin]-2′-one], the 50% growth inhibitory concentration (GI50) with SW620 colon cancer cells and in the assay on A549 lung cancer cells was above 10 µM in each case.

As to `COc1ccc2c(c1)[C@]1(C[C@H]1c1ccc3c(/C=C/c4ccc(CN5CCOCC5)s4)n[nH]c3c1)C(=O)N2` [Example A105, (1R,2S)-5′-methoxy-2-(3-((E)-2-(5-(morpholinomethyl)thiophen-2-yl)vinyl)-1H-indazol-6-yl)spiro[cyclopropane-1,3′-indolin]-2′-one hydrochloride], the GI50 with SW620 colon cancer cells and in the assay on A549 lung cancer cells was below 0.1 µM each time.

As to `COc1ccc2c(c1)[C@]1(CC1c1ccc3c(-c4ccc(N5CCN(C)CC5)nc4)n[nH]c3c1)C(=O)N2` (mixture of isomers) [Example A14, (1R*,2S*)-5′-Methoxy-2-(3-(6-(4-methylpiperazin-1-yl)pyridin-3-yl)-1H-indazol-6-yl)spiro[cyclopropane-1,3′-indolin]-2′-one dihydrochloride], the 50% growth inhibitory concentration (GI50) with SW620 colon cancer cells and in the assay with A549 lung cancer cells was below 0.1 µM in each case.

For `CN1C(=O)[C@@]2(C[C@H]2c2ccc3c(/C=C/c4ccc(N5CCNCC5)cc4)n[nH]c3c2)c2ccccc21` [Example A90, (1R,2S)-(E)-1′-methyl-2-(3-(4-(piperazin-1-yl)styryl)-1H-indazol-6-yl)spiro[cyclopropane-1,3′-indolin]-2′-one hydrochloride], the concentration for 50% growth inhibition (GI50) in the assay with SW620 colon cancer cells and in the assay with A549 lung cancer cells was below 0.1 µM throughout.

On to `COc1ccc2c(c1)[C@]1(C[C@H]1c1ccc3c(-c4ccc(N5CCN(C)CC5)cc4)n[nH]c3c1)C(=O)N2` (relative stereo) [Example A38, (1R*,2S*)-5′-Methoxy-2-(3-(4-(4-methylpiperazin-1-yl)phenyl)-1H-indazol-6-yl)spiro[cyclopropane-1,3′-indolin]-2′-one], for which the GI50 in the assay on SW620 colon cancer cells lay within 0.1 to 1 µM. At Aurora B, the 50% inhibitory concentration (IC50) was below 0.1 µM.

Regarding `NC(=O)CN1C(=O)[C@@]2(C[C@H]2c2ccc3c(/C=C/c4ccc(CN5CCCCC5)cc4)n[nH]c3c2)c2ccccc21` (relative stereo) [Example A165, 2-((1R*,2S*)-(E)-2′-oxo-2-(3-(4-(piperidin-1-ylmethyl)styryl)-1H-indazol-6-yl)spiro[cyclopropane-1,3′-indoline]-1′-yl)acetamide 2,2,2-trifluoroacetate], the 50% inhibitory concentration (IC50) at human PLK4 (read-out: IC50 Ranges PLK4) and at Aurora B was below 0.1 µM in each case.

On to `COc1ccc2c(c1)[C@]1(C[C@H]1c1ccc3c(-c4ccc(C5CCNCC5)cc4)n[nH]c3c1)C(=O)N2` (relative stereo) [Example A122, (1R*,2S*)-5′-methoxy-2-(3-(4-(piperidin-4-yl)phenyl)-1H-indazol-6-yl)spiro[cyclopropane-1,3′-indolin]-2′-one 2,2,2-trifluoroacetate], for which the 50% growth inhibitory concentration (GI50) in the assay on SW620 colon cancer cells and with A549 lung cancer cells was below 0.1 µM each time.

In the case of `COc1ccc2c(c1)[C@]1(C[C@H]1c1ccc3c(C#Cc4ccc(C=O)cc4)n[nH]c3c1)C(=O)N2` (relative stereo) [Example A137, 4-((6-((1R*,2S*)-5′-methoxy-2′-oxospiro[cyclopropane-1,3′-indoline]-2-yl)-1H-indazol-3-yl)ethynyl)benzaldehyde], the half-inhibitory concentration (IC50) at human PLK4 (read-out: IC50 Ranges PLK4) and at Aurora B was below 0.1 µM in each case.

Regarding `Cc1ccc2c(c1)[C@]1(C[C@H]1c1ccc3c(/C=C/c4ccc(CN(C)C)cc4)n[nH]c3c1)C(=O)N2` (relative stereo) [Example A169, (1R*,2S*)-(E)-2-(3-(4-((dimethylamino)methyl)styryl)-1H-indazol-6-yl)-5′-methylspiro[cyclopropane-1,3′-indolin]-2′-one 2,2,2-trifluoroacetate], the GI50 with A549 lung cancer cells is below 0.1 µM.

`CN(C)Cc1cccc(/C=C/c2n[nH]c3cc([C@@H]4C[C@@]45C(=O)Nc4ccccc45)ccc23)c1` (relative stereo) [Example A162, (1R*,2S*)-(E)-2-(3-(3-((dimethylamino)methyl)styryl)-1H-indazol-6-yl) spiro[cyclopropane-1,3′-indolin]-2′-one 2,2,2-trifluoroacetate]: the IC50 at human PLK4 (read-out: IC50 Ranges PLK4) and on Aurora B was below 0.1 µM each time.

For the compound `COc1ccc2c(c1)[C@]1(C[C@H]1c1ccc3c(-c4ccc(N5CCN(C)CC5)cc4)n[nH]c3c1)C(=O)N2C` (relative stereo) [Example A100, (1R*,2S*)-5′-methoxy-1′-methyl-2-(3-(4-(4-methylpiperazin-1-yl)phenyl)-1H-indazol-6-yl)spiro[cyclopropane-1,3′-indolin]-2′-one 2,2,2-trifluoroacetate], the IC50 on human PLK4 (read-out: IC50 Ranges PLK4) and on Aurora B was below 0.1 µM each time.

With `COc1ccc2c(c1)[C@]1(C[C@@H]1c1ccc3c(-c4ccc(N5CCN(C)CC5)nc4)n[nH]c3c1)C(=O)N2` (relative stereo) [Example A17, (1R*,2R*)-5′-Methoxy-2-(3-(6-(4-methylpiperazin-1-yl)pyridin-3-yl)-1H-indazol-6-yl)spiro[cyclopropane-1,3′-indolin]-2′-one], the IC50 was below 0.1 µM on human PLK4 and 0.1 to 1 µM on Aurora B.

Regarding `COc1ccc2c(c1)[C@]1(C[C@H]1c1ccc3c(C#Cc4ccc(CN5CCN(C)CC5)cc4)n[nH]c3c1)C(=O)N2` (relative stereo) [Example A145, (1R*,2S*)-5′-methoxy-2-(3-((4-((4-methylpiperazin-1-yl)methyl)phenyl)ethynyl)-1H-indazol-6-yl)spiro[cyclopropane-1,3′-indolin]-2′-one bis(2,2,2-trifluoroacetate)], the figures for the IC50 on human PLK4 (read-out: IC50 Ranges PLK4) and on Aurora B were below 0.1 µM and 0.1 to 1 µM, respectively.

`COc1ccc2c(c1)[C@]1(C[C@H]1c1ccc3c(-c4ccc(C(=O)N5CCN(C)CC5)cc4)n[nH]c3c1)C(=O)N2` (relative stereo) [Example A148, (1R*,2S*)-5′-methoxy-2-(3-(4-(4-methylpiperazine-1-carbonyl)phenyl)-1H-indazol-6-yl)spiro[cyclopropane-1,3′-indolin]-2′-one 2,2,2-trifluoroacetate]: the 50% inhibitory concentration (IC50) on human PLK4 (read-out: IC50 Ranges PLK4) was below 0.1 µM; at Aurora B, 0.1 to 1 µM. Also, the values for the GI50 in the assay with SW620 colon cancer cells and in the assay on A549 lung cancer cells were 1 to 10 µM and 0.1 to 1 µM, respectively.

In the case of `O=C1Nc2ccc(F)cc2[C@]12C[C@H]2c1ccc2c(I)n[nH]c2c1` (relative stereo) [Example A40, (1R*,2S*)-5′-fluoro-2-(3-iodo-1H-indazol-6-yl)spiro[cyclopropane-1,3′-indolin]-2′-one], the IC50 at human PLK4 (read-out: IC50 Ranges PLK4) and on Aurora B was 0.1 to 1 µM throughout.

For `CN1CCN(C(=O)c2ccc(-c3n[nH]c4cc([C@@H]5C[C@@]56C(=O)Nc5ccccc56)ccc34)cc2)CC1` (relative stereo) [Example A156, (1R*,2S*)-2-(3-(4-(4-methylpiperazine-1-carbonyl)phenyl)-1H-indazol-6-yl)spiro[cyclopropane-1,3′-indolin]-2′-one 2,2,2-trifluoroacetate], the IC50 is below 0.1 µM at human PLK4 (read-out: IC50 Ranges PLK4) and 0.1 to 1 µM at Aurora B.

For `COc1cc2c(cc1OC)[C@]1(C[C@H]1c1ccc3c(/C=C/c4ccc(CN(C)C)cc4)n[nH]c3c1)C(=O)N2` (relative stereo) [Example A168, (1R*,2S*)-(E)-2-(3-(4-((dimethylamino)methyl)styryl)-1H-indazol-6-yl)-5′,6′-dimethoxyspiro[cyclopropane-1,3′-indolin]-2′-one 2,2,2-trifluoroacetate], the concentration for half-maximal inhibition (IC50) on human PLK4 (read-out: IC50 Ranges PLK4) and on Aurora B was below 0.1 µM each time.

Turning to `COc1ccc2c(c1)[C@]1(C[C@H]1c1ccc3c(-c4ccc(N5CCC(O)CC5)nc4)n[nH]c3c1)C(=O)N2` (relative stereo) [Example A117, (1R*,2S*)-2-(3-(6-(4-hydroxypiperidin-1-yl)pyridin-3-yl)-1H-indazol-6-yl)-5′-methoxyspiro[cyclopropane-1,3′-indolin]-2′-one 2,2,2-trifluoroacetate], the 50% growth inhibitory concentration (GI50) in the assay with SW620 colon cancer cells is above 10 µM; with A549 lung cancer cells it was 1 to 10 µM. For the same compound, the 50% inhibitory concentration (IC50) on Aurora B lay in the range of 0.1 to 1 µM.

On to `CN1CCN(c2ccc(-c3n[nH]c4cc([C@@H]5C[C@@]56C(=O)Nc5ccc(OC(F)F)cc56)ccc34)cn2)CC1` (relative stereo) [Example A209, (1R*,2S*)-5′-(difluoromethoxy)-2-(3-(6-(4-methylpiperazine-1-yl)pyridine-3-yl)-1H-indazol-6-yl)spiro[cyclopropane-1,3′-indolin]-2′-one 2,2,2-trifluoro acetate], for which the 50% inhibitory concentration (IC50) on human PLK4 (read-out: IC50 Ranges PLK4) and on Aurora B was below 0.1 µM throughout.

With `COc1ccc2c(c1)[C@]1(C[C@H]1c1ccc3c(-c4ccc(CN5CCOCC5)cc4)n[nH]c3c1)C(=O)N2` (relative stereo) [Example A139, (1R*,2S*)-5′-methoxy-2-(3-(4-(morpholinomethyl)phenyl)-1H-indazol-6-yl)spiro[cyclopropane-1,3′-indolin]-2′-one 2,2,2-trifluoroacetate], the 50% inhibitory concentration (IC50) on human PLK4 (read-out: IC50 Ranges PLK4) and at Aurora B was below 0.1 µM in each case.

Regarding `COc1ccc2c(c1)[C@]1(C[C@H]1c1ccc3c(/C=C/c4ccc(N5CCNCC5)cc4)n[nH]c3c1)C(=O)N2` (relative stereo) [Example A182, (1R*,2S*)-5′-methoxy-2-(3-(4-(piperazin-1-yl)styryl)-1H-indazol-6-yl)spiro[cyclopropane-1,3′-indolin]-2′-one 2,2,2-trifluoroacetate], the half-inhibitory concentration (IC50) on human PLK4 (read-out: IC50 Ranges PLK4) and at Aurora B was below 0.1 µM each time.
